Tests used:
[1] = biological target: T1, variant enzyme F95W of undecaprenyl diphosphate synthase (Micrococcus luteus, UniProt O82827, F95W); assay: Relative activity of variant enzyme F95W on initiating substrates; type: biochemical, Micrococcus luteus B-P 26; conditions: index, activity of wild-type enzyme on same initiating substrate as 100; 12.5 μM initiating substrate, 1 hour, 37° C.
T1 construct: made in house; host or cells: E. coli; site-directed mutagenesis of pET22b/MLU-UPS
Procedure: (§1) Reaction was performed under conditions shown below using each of the initiating substrates prepared in Production Examples 1 to 11 or farnesyl diphosphate. The activity of each variant enzyme on each initiating substrate was indicated by index with the activity of the wild-type enzyme (Micrococcus luteus B-P 26-derived undecaprenyl diphosphate synthase) as 100.
(§2) After the reaction, liquid scintillation counting and TLC quantification were performed to measure the activity of each enzyme.

[2] = biological target: T2, variant enzyme F95A of undecaprenyl diphosphate synthase (Micrococcus luteus, UniProt O82827, F95A); assay: Relative activity of variant enzyme F95A on initiating substrates; type: biochemical, Micrococcus luteus B-P 26; conditions: index, activity of wild-type enzyme on same initiating substrate as 100; 12.5 μM initiating substrate, 1 hour, 37° C.
T2 construct: made in house; host or cells: E. coli; site-directed mutagenesis of pET22b/MLU-UPS
T2 sequence (O82827 whole entry F95A): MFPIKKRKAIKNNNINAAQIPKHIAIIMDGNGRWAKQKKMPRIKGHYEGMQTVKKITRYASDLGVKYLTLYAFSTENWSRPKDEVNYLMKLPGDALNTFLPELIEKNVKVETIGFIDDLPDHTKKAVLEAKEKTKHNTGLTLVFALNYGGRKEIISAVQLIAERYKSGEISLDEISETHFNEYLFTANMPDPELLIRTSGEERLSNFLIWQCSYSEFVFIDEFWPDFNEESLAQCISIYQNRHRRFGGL
Procedure: as §1, §2

[3] = biological target: T3, variant enzyme L91D of undecaprenyl diphosphate synthase (Micrococcus luteus, UniProt O82827, L91D); assay: Relative activity of variant enzyme L91D on initiating substrates; type: biochemical, Micrococcus luteus B-P 26; conditions: index, activity of wild-type enzyme on same initiating substrate as 100; 12.5 μM initiating substrate, 1 hour, 37° C.
T3 construct: made in house; host or cells: E. coli; site-directed mutagenesis of pET22b/MLU-UPS
T3 sequence (O82827 whole entry L91D): as the sequence (O82827 whole entry F95A) above, with L91D, A95F counted along it
Procedure: as §1, §2

[4] = biological target: T4, variant enzyme L91G of undecaprenyl diphosphate synthase (Micrococcus luteus, UniProt O82827, L91G); assay: Relative activity of variant enzyme L91G on initiating substrates; type: biochemical, Micrococcus luteus B-P 26; conditions: index, activity of wild-type enzyme on same initiating substrate as 100; 12.5 μM initiating substrate, 1 hour, 37° C.
T4 construct: made in house; host or cells: E. coli; site-directed mutagenesis of pET22b/MLU-UPS
T4 sequence (O82827 whole entry L91G): as the sequence (O82827 whole entry F95A) above, with L91G, A95F counted along it
Procedure: as §1, §2

[5] = biological target: T5, variant enzyme N77A of undecaprenyl diphosphate synthase (Micrococcus luteus, UniProt O82827, N77A); assay: Relative activity of variant enzyme N77A on initiating substrates; type: biochemical, Micrococcus luteus B-P 26; conditions: index, activity of wild-type enzyme on same initiating substrate as 100; 12.5 μM initiating substrate, 1 hour, 37° C.
T5 construct: made in house; host or cells: E. coli; site-directed mutagenesis of pET22b/MLU-UPS
T5 sequence (O82827 whole entry N77A): as the sequence (O82827 whole entry F95A) above, with N77A, A95F counted along it
Procedure: as §1, §2

[6] = biological target: T6, variant enzyme N77Q of undecaprenyl diphosphate synthase (Micrococcus luteus, UniProt O82827, N77Q); assay: Relative activity of variant enzyme N77Q on initiating substrates; type: biochemical, Micrococcus luteus B-P 26; conditions: index, activity of wild-type enzyme on same initiating substrate as 100; 12.5 μM initiating substrate, 1 hour, 37° C.
T6 construct: made in house; host or cells: E. coli; site-directed mutagenesis of pET22b/MLU-UPS
T6 sequence (O82827 whole entry N77Q): as the sequence (O82827 whole entry F95A) above, with N77Q, A95F counted along it
Procedure: as §1, §2

[7] = biological target: T7, variant enzyme N31A of undecaprenyl diphosphate synthase (Micrococcus luteus, UniProt O82827, N31A); assay: Relative activity of variant enzyme N31A on initiating substrates; type: biochemical, Micrococcus luteus B-P 26; conditions: index, activity of wild-type enzyme on same initiating substrate as 100; 12.5 μM initiating substrate, 1 hour, 37° C.
T7 construct: made in house; host or cells: E. coli; site-directed mutagenesis of pET22b/MLU-UPS
T7 sequence (O82827 whole entry N31A): as the sequence (O82827 whole entry F95A) above, with N31A, A95F counted along it
Procedure: as §1, §2

[8] = biological target: T8, variant enzyme N31Q of undecaprenyl diphosphate synthase (Micrococcus luteus, UniProt O82827, N31Q); assay: Relative activity of variant enzyme N31Q on initiating substrates; type: biochemical, Micrococcus luteus B-P 26; conditions: index, activity of wild-type enzyme on same initiating substrate as 100; 12.5 μM initiating substrate, 1 hour, 37° C.
T8 construct: made in house; host or cells: E. coli; site-directed mutagenesis of pET22b/MLU-UPS
T8 sequence (O82827 whole entry N31Q): as the sequence (O82827 whole entry F95A) above, with N31Q, A95F counted along it
Procedure: as §1, §2

[9] = biological target: T9, variant enzyme L91K of undecaprenyl diphosphate synthase (Micrococcus luteus, UniProt O82827, L91K); assay: Relative activity of variant enzyme L91K on initiating substrates; type: biochemical, Micrococcus luteus B-P 26; conditions: index, activity of wild-type enzyme on same initiating substrate as 100; 12.5 μM initiating substrate, 1 hour, 37° C.
T9 construct: made in house; host or cells: E. coli; site-directed mutagenesis of pET22b/MLU-UPS
T9 sequence (O82827 whole entry L91K): as the sequence (O82827 whole entry F95A) above, with L91K, A95F counted along it
Procedure: as §1, §2

[10] = biological target: T10, variant enzyme L91N of undecaprenyl diphosphate synthase (Micrococcus luteus, UniProt O82827, L91N); assay: Relative activity of variant enzyme L91N on initiating substrates; type: biochemical, Micrococcus luteus B-P 26; conditions: index, activity of wild-type enzyme on same initiating substrate as 100; 12.5 μM initiating substrate, 1 hour, 37° C.
T10 construct: made in house; host or cells: E. coli; site-directed mutagenesis of pET22b/MLU-UPS
T10 sequence (O82827 whole entry L91N): as the sequence (O82827 whole entry F95A) above, with L91N, A95F counted along it
Procedure: as §1, §2

[11] = biological target: T11, Micrococcus luteus B-P 26-derived undecaprenyl diphosphate synthase (wild-type enzyme) (Micrococcus luteus, UniProt O82827); assay: Relative activity of wild-type undecaprenyl diphosphate synthase on initiating substrates; type: biochemical; conditions: activity of the enzyme on farnesyl diphosphate as 100; 12.5 μM initiating substrate, pH 7.5, 1 hour, 37° C.
T11 construct: made in house; host or cells: E. coli; plasmid pET22b/MLU-UPS
T11 sequence (O82827 whole entry): as the sequence (O82827 whole entry F95A) above, with A95F counted along it
Procedure: as §1, §2
Next, reaction was performed under conditions shown below using Micrococcus luteus B-P 26-derived undecaprenyl diphosphate synthase as an enzyme and each of the initiating substrates 1 to 4, the compound represented by the formula (B), the compound represented by the formula (C), the compound represented by the formula (G), the compound represented by the formula (K), and farnesyl diphosphate (FPP). The results were indicated in Table 10 by the relative activity of the enzyme on the initiating substrates 1 to 4, the compound represented by the formula (B), the compound represented by the formula (C), the compound represented by the formula (G), and the compound represented by the formula (K) with the activity of the enzyme on farnesyl diphosphate as 100.
(§3) After the reaction, liquid scintillation counting and TLC quantification were performed to measure the activity of the enzyme on each initiating substrate.

[12] = biological target: T12, Sulfolobus acidocaldarius-derived geranylgeranyl diphosphate synthase (Sulfolobus acidocaldarius, UniProt P39464); assay: Relative activity of geranylgeranyl diphosphate synthase on initiating substrates; type: biochemical; conditions: 12.5 μM initiating substrate, pH 5.8, 1 hour, 55° C.
T12 construct: made in house; host or cells: E. coli BL21 (DE3)
T12 sequence (P39464 whole entry): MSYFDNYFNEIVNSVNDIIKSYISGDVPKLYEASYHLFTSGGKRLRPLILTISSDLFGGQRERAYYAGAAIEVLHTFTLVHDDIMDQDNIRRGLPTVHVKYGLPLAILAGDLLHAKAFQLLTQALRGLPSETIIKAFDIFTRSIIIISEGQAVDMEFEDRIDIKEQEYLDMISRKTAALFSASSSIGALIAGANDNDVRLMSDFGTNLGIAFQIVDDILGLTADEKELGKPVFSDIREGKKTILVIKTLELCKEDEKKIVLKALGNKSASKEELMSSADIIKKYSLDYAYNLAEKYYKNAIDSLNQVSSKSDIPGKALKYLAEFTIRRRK
Procedure: Likewise, reaction was performed under conditions shown below using Sulfolobus acidocaldarius-derived geranylgeranyl diphosphate synthase and each of the initiating substrates 1 to 4, the compound represented by the formula (B), the compound represented by the formula (C), the compound represented by the formula (G), the compound represented by the formula (K), the compound represented by the formula (F), the compound represented by the formula (I), the compound represented by the formula (Q), farnesyl diphosphate (FPP), and geranyl diphosphate (GPP). The results were indicated in Tables 12 and 13 by the relative activity of the enzyme on the initiating substrates 1 to 4, the compound represented by the formula (B), the compound represented by the formula (C), the compound represented by the formula (G), the compound represented by the formula (K), the compound represented by the formula (F), the compound represented by the formula (I), and the compound represented by the formula (QO) with the activity of the enzyme on farnesyl diphosphate or geranyl diphosphate as 100.
as §3

[13] = biological target: T13, Bacillus stearothermophilus-derived farnesyl diphosphate synthase (Geobacillus stearothermophilus, UniProt Q08291); assay: Relative activity of farnesyl diphosphate synthase on initiating substrates; type: biochemical; conditions: activity of the enzyme on geranyl diphosphate as 100; 12.5 μM initiating substrate, pH 8.5, 1 hour, 55° C.
T13 construct: made in house; host or cells: E. coli BL21 (DE3)
T13 sequence (Q08291 whole entry): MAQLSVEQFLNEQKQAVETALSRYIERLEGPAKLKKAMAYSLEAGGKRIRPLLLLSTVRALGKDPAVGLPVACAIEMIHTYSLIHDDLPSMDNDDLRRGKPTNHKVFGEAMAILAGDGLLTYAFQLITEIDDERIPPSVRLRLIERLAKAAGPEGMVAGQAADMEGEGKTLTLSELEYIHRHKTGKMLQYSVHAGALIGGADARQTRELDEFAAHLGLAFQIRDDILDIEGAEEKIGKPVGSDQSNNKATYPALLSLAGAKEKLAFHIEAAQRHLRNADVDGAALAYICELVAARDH
Procedure: Reaction was performed under conditions shown below using the obtained Bacillus stearothermophilus-derived farnesyl diphosphate synthase and each of the initiating substrates 1 to 4, the compound represented by the formula (F), the compound represented by the formula (I), the compound represented by the formula (QO), and geranyl diphosphate (GPP) whose structure is shown below. The results were indicated in Table 11 by the relative activity of the enzyme on the initiating substrates 1 to 4, the compound represented by the formula (F), the compound represented by the formula (I), and the compound represented by the formula (Q) with the activity of the enzyme on geranyl diphosphate as 100.
as §3

[14] = activity of the enzyme on farnesyl diphosphate as 100
[15] = activity of the enzyme on geranyl diphosphate as 100

T1 sequence (O82827 whole entry F95W): as the sequence (O82827 whole entry F95A) above, with A95W counted along it

Compound | Relative activity [1] | Relative activity [2] | Relative activity [3] | Relative activity [4] | Relative activity [5] | Relative activity [6] | Relative activity [7] | Relative activity [8] | Relative activity [9] | Relative activity [10] | Relative activity (%) [11] [%] | Relative activity (%) [12, 14] [%] | Relative activity (%) [13] [%] | Relative activity (%) [12, 15] [%]
C/C(=C\COP(=O)(O)OP(=O)(O)O)CC/C=C(\C)CO[Si](C)(C)C(C)(C)C [Compound of formula (P), 8-[(tert-butyldimethylsilyl)oxy]-3,7-dimethyl-octa-(2E,6E)-dienyl diphosphate] | 130 | 104 | 112 | 104 |  |  |  |  |  |  |  |  |  | 
C/C(=C\COP(=O)(O)OP(=O)(O)O)CC/C=C(\C)COCc1ccccc1 [Compound of formula (N), 8-benzyloxy-3,7-dimethyl-octa-(2E,6E)-dienyl diphosphate] | 147 | 132 |  |  | 112 | 133 |  |  |  |  |  |  |  | 
COCOC/C(C)=C/CC/C(C)=C/COP(=O)(O)OP(=O)(O)O [Compound of formula (H), 8-methoxymethoxy-3,7-dimethyl-octa-(2E,6E)-dienyl diphosphate] |  |  |  |  | 162 |  | 152 | 110 |  |  |  |  |  | 
CCCSC/C(C)=C/CC/C(C)=C/COP(=O)(O)OP(=O)(O)O [Compound of formula (M), 8-n-propylthio-3,7-dimethyl-octa-(2E,6E)-dienyl diphosphate] |  |  | 123 |  | 127 |  | 149 | 101 | 112 | 139 |  |  |  | 
CCCCC(OC)/C(C)=C/CC/C(C)=C/COP(=O)(O)OP(=O)(O)O (stereo not drawn) [Compound of formula (B), 8-methoxy-3,7-dimethyl-dodeca-(2E,6E)-dienyl diphosphate] | 140 | 128 | 231 | 149 | 319 |  | 116 |  | 156 |  | 68.4 | 70.6 |  | 
CC(C)=CCC/C=C/COP(=O)(O)OP(=O)(O)O [Initiating substrate 2, 7-methyl-octa-2E,6E-dienyl diphosphate] |  |  |  |  |  |  |  |  |  |  | 0.6 | 2.5 | 3.2 | 0.4
CC[C@@H](O)CC/C(C)=C/CC/C(C)=C/COP(=O)(O)OP(=O)(O)O [Compound of formula (E), (10R)-hydroxy-3,7-dimethyl-dodeca-(2E,6E)-dienyl diphosphate] | 114 | 120 | 320 | 170 | 396 | 194 | 222 | 210 | 163 | 271 |  |  |  | 
CCCCC(O)/C(C)=C/CC/C(C)=C/COP(=O)(O)OP(=O)(O)O (stereo not drawn) [Compound of formula (C), 8-hydroxy-3,7-dimethyl-dodeca-(2E,6E)-dienyl diphosphate] |  |  | 155 | 146 | 234 |  | 111 |  | 130 | 108 | 74.8 | 37.3 |  | 
CCC(CC/C(C)=C/CC/C(C)=C/COP(=O)(O)OP(=O)(O)O)C(C)=O [Compound of formula (S), 10-acetyl-3,7-dimethyl-dodeca-(2E,6E)-dienyl diphosphate] | 130 | 163 | 227 | 130 |  |  | 116 |  | 147 |  |  |  |  | 
7-acetyl-7-aza-3-methyl-dodeca-(2E)-dienyl diphosphate [Compound of formula (K)] | 148 | 136 |  |  |  |  |  |  | 112 |  | 40.6 | 38.6 |  | 
CCC(O)CC/C(C)=C/CC/C(C)=C/COP(=O)(O)OP(=O)(O)O [Compound of formula (R), 10-hydroxy-3,7-dimethyl-dodeca-(2E,6E)-dienyl diphosphate] | 121 | 140 | 230 | 110 | 254 | 156 | 200 | 146 | 165 | 137 |  |  |  | 
C/C=C/COP(=O)(O)OP(=O)(O)O [Initiating substrate 1, 2E-butenyl diphosphate] |  |  |  |  |  |  |  |  |  |  | 0.3 | 2.3 | 1.4 | 0.4
CC(C)=CCC/C(C)=C/CC/C=C/COP(=O)(O)OP(=O)(O)O [Initiating substrate 3, 7,11-dimethyl-dodeca-2E,6E,10E-trienyl diphosphate] |  |  |  |  |  |  |  |  |  |  | 1.2 | 3.9 | 2.1 | 0.6
CC(C)=CCC/C(C)=C/CC/C(C)=C/CC/C=C/COP(=O)(O)OP(=O)(O)O [Initiating substrate 4, 7,11,15-trimethyl-hexadeca-2E,6E,10E,14E-tetraenyl diphosphate] |  |  |  |  |  |  |  |  |  |  | 5.9 | 1.4 | 0.7 | 0.8
CC[C@H](O)CC/C(C)=C/CC/C(C)=C/COP(=O)(O)OP(=O)(O)O [Compound of formula (D), (10S)-hydroxy-3,7-dimethyl-dodeca-(2E,6E)-dienyl diphosphate] | 120 |  | 125 | 134 | 208 | 124 | 179 | 104 | 101 | 103 |  |  |  | 

— US9371342B2, “Isoprene oligomer, polyisoprene, processes for producing these materials, rubber composition, and pneumatic tire” (priority 2010, dated 2016)
